# Assay results as given in ChEMBL document CHEMBL1201862, “PubChem BioAssay data set” (2004).
#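 How tested: cells in 96-well plates exposed to compound for 48 hours at five concentrations. The concentration for 50% growth inhibition is given as GI50.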 Active and inactive are the calls of the source. Rule as the data show it: active = GI50 up to about 1.1 µM and inactive = higher.
# How the values were obtained:
# Assay in all cases: NCI tumour cell line growth inhibition, 48 h
# OVCAR-5 = system: OVCAR-5
# RPMI-8226 = system: RPMI-8226
# HL-60 = system: HL-60
# IGROV-1 = system: IGROV-1
# TK-10 = system: TK-10
# U-251 = system: U-251
# DMS-273 = system: DMS-273
# SNB-19 = system: SNB-19
# SF-539 = system: SF-539
# SK-MEL-2 = system: SK-MEL-2
# SF-268 = system: SF-268
# NCI-H522 = system: NCI-H522
# LOX IMVI = system: LOX IMVI
# DLD-1 = system: DLD-1
# ACHN = system: ACHN
# NCI-H226 = system: NCI-H226
# HCT-116 = system: HCT-116
# UACC-257 = system: UACC-257
Structure (SMILES),GI50 (OVCAR-5),GI50 (RPMI-8226),GI50 (HL-60),GI50 (IGROV-1),GI50 (TK-10),GI50 (U-251),GI50 (DMS-273),GI50 (SNB-19),GI50 (SF-539),GI50 (SK-MEL-2),GI50 (SF-268),GI50 (NCI-H522),GI50 (LOX IMVI),GI50 (DLD-1),GI50 (ACHN),GI50 (NCI-H226),GI50 (HCT-116),GI50 (UACC-257)
CC(C)N(C(=O)C12C3C4C5C3C1(C#N)C5C42)C(C)C (stereo not given),> 100 µM (inactive),> 100 µM (inactive),> 100 µM (inactive),> 100 µM (inactive),> 100 µM (inactive),> 100 µM (inactive),> 100 µM (inactive),> 100 µM (inactive),> 100 µM (inactive),> 100 µM (inactive),> 100 µM (inactive),> 100 µM (inactive),35.3 µM (inactive),> 100 µM (inactive),> 100 µM (inactive),> 100 µM (inactive),> 100 µM (inactive),> 100 µM (inactive)
CCOC(=O)CCC(NC(=O)c1ccc(/N=C/c2nc3ccccc3nc2-c2ccccc2)cc1)C(=O)OCC (stereo not given),> 100 µM (inactive),> 100 µM (inactive),> 100 µM (inactive),> 100 µM (inactive),> 100 µM (inactive),> 100 µM (inactive),> 100 µM (inactive),> 100 µM (inactive),> 100 µM (inactive),> 100 µM (inactive),> 100 µM (inactive),> 100 µM (inactive),> 100 µM (inactive),> 100 µM (inactive),> 100 µM (inactive),> 100 µM (inactive),> 100 µM (inactive),> 100 µM (inactive)
O=C(O)c1ccccc1C1c2ccc(Cl)cc2Oc2cc(Cl)ccc21,> 100 µM (inactive),> 100 µM (inactive),> 100 µM (inactive),> 100 µM (inactive),> 100 µM (inactive),> 100 µM (inactive),> 100 µM (inactive),> 100 µM (inactive),> 100 µM (inactive),> 100 µM (inactive),> 100 µM (inactive),> 100 µM (inactive),> 100 µM (inactive),> 100 µM (inactive),> 100 µM (inactive),,,> 100 µM (inactive)
Cc1ccc(/C=C/C(=O)c2sc(-n3nc(-c4ccccc4)cc3-c3ccccc3)nc2C)cc1,> 100 µM (inactive),> 100 µM (inactive),36.4 µM (inactive),> 100 µM (inactive),> 100 µM (inactive),> 100 µM (inactive),> 100 µM (inactive),,> 100 µM (inactive),> 100 µM (inactive),> 100 µM (inactive),87.5 µM (inactive),> 100 µM (inactive),> 100 µM (inactive),65.8 µM (inactive),> 100 µM (inactive),,> 100 µM (inactive)
COc1cc(/C=C2/C(=O)N(C(=O)OC(C)C)C(Cc3cc(OC)c(OC)c(C)c3OC)C(=O)N2Cc2ccccc2)c(OC)c(C)c1OC (stereo not given),> 100 µM (inactive),6.58 µM (inactive),3.52 µM (inactive),> 100 µM (inactive),35.6 µM (inactive),86.7 µM (inactive),14 µM (inactive),,> 100 µM (inactive),27.1 µM (inactive),> 100 µM (inactive),3.74 µM (inactive),> 100 µM (inactive),> 100 µM (inactive),> 100 µM (inactive),3.35 µM (inactive),27.5 µM (inactive),7.94 µM (inactive)
CC(=O)Nc1ccc(-c2nnc(SCC(=O)Nc3cccc(C)c3)o2)cc1,13.4 µM (inactive),13.8 µM (inactive),19.5 µM (inactive),11.7 µM (inactive),15.8 µM (inactive),13.5 µM (inactive),10.3 µM (inactive),,14.5 µM (inactive),12.5 µM (inactive),24.5 µM (inactive),4.4 µM (inactive),3.43 µM (inactive),10.5 µM (inactive),10.7 µM (inactive),14.4 µM (inactive),11.8 µM (inactive),12.3 µM (inactive)
CC(C)CCCC(C)[C@H]1CCC2[C@@H]3CCC4Nc5c(cnn5-c5ccccc5)C[C@]4(C)C3CC[C@@]21C (stereo not given in full),50.1 µM (inactive),3.61 µM (inactive),4.67 µM (inactive),> 100 µM (inactive),> 100 µM (inactive),12.5 µM (inactive),2.72 µM (inactive),18.2 µM (inactive),12.9 µM (inactive),23.4 µM (inactive),85.3 µM (inactive),43.1 µM (inactive),,> 100 µM (inactive),29.8 µM (inactive),17.9 µM (inactive),51.6 µM (inactive),44.5 µM (inactive)
COc1ccc2nc3cccc(C(=O)NCCN(C)C)c3nc2c1,1.51 µM (inactive),0.824 µM (active),1.08 µM (active),2.67 µM (inactive),2 µM (inactive),2.57 µM (inactive),1.44 µM (inactive),2.84 µM (inactive),2.1 µM (inactive),1.59 µM (inactive),,2.73 µM (inactive),0.64 µM (active),1.37 µM (inactive),0.689 µM (active),1.32 µM (inactive),0.512 µM (active),2.64 µM (inactive)
CCC(=O)OC1CCn2c1nc1c2C(=O)C(C)=C(NC(C)=O)C1=O (stereo not given),1.92 µM (inactive),1.93 µM (inactive),0.796 µM (active),2.19 µM (inactive),5.12 µM (inactive),2.08 µM (inactive),1.79 µM (inactive),2.9 µM (inactive),1.75 µM (inactive),1.89 µM (inactive),1.74 µM (inactive),1.54 µM (inactive),1.37 µM (inactive),1.84 µM (inactive),3.59 µM (inactive),1.69 µM (inactive),1.67 µM (inactive),1.69 µM (inactive)
N#Cc1c(C(N)=O)ncn1Cc1ccccc1,> 100 µM (inactive),> 100 µM (inactive),> 100 µM (inactive),> 100 µM (inactive),> 100 µM (inactive),> 100 µM (inactive),> 100 µM (inactive),> 100 µM (inactive),> 100 µM (inactive),> 100 µM (inactive),> 100 µM (inactive),> 100 µM (inactive),> 100 µM (inactive),> 100 µM (inactive),> 100 µM (inactive),> 100 µM (inactive),> 100 µM (inactive),> 100 µM (inactive)
O=C(NCCOC(=O)CCCCCCCCC(=O)OCCNC(=O)NC(=O)c1cn(Cc2ccccc2)c(=O)[nH]c1=O)NC(=O)c1cn(Cc2ccccc2)c(=O)[nH]c1=O,> 100 µM (inactive),> 100 µM (inactive),> 100 µM (inactive),> 100 µM (inactive),> 100 µM (inactive),> 100 µM (inactive),> 100 µM (inactive),> 100 µM (inactive),> 100 µM (inactive),> 100 µM (inactive),> 100 µM (inactive),> 100 µM (inactive),> 100 µM (inactive),> 100 µM (inactive),> 100 µM (inactive),> 100 µM (inactive),> 100 µM (inactive),> 100 µM (inactive)
